Results on 25 compounds are retold here after patent publication US11274101B2, “Heterocyclic compound” (Takeda Pharmaceutical Company Limited, priority 2017, dated 2022).

The structures appear in SMILES notation.

This experiment deals with T1, His-hMAGL (recombinant polyhistidine tagged human MAGL protein) (Homo sapiens, UniProt Q99685).
T1 construct: made in house; host or cells: E. coli BL21(DE3)
T1 sequence (Q99685 1-303): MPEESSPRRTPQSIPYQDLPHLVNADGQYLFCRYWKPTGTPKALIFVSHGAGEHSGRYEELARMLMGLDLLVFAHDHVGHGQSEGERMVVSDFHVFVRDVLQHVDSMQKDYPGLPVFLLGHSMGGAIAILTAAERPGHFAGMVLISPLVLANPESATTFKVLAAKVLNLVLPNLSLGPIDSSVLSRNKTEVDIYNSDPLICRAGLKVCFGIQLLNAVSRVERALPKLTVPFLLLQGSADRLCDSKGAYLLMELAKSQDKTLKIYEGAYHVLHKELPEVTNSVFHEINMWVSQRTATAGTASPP
The experiment is described as follows: Measurement of MAGL inhibitory activity (arachidonic acid production from 2-arachidonylglycerol, RapidFire-mass spectrometry). Type of experiment: biochemical. To be noted: test compound 10 μM; MAGL inhibitory rate. The method, then: The His-hMAGL obtained above was diluted with enzyme reaction buffer (10 mM Tris-HCl, pH 7.5, 1 mM EDTA, 0.025 (w/v) % Triton X-100, 0.01% Bovine serum albumin) to a concentration of 7.5 ng/mL. To each well of a 384 well assay plate (Greiner 781280) was added a solution (5 μL) of a test compound dissolved in dimethyl sulfoxide (DMSO), which was diluted with the above-mentioned enzyme reaction buffer, then His-hMAGL solution (5 μL) diluted to a concentration of 7.5 ng/mL was added, and the mixture was incubated at room temperature for 60 min. Thereafter, to each well was added 5 μL of 150 μM 2-arachidonylglycerol (Tocris Bioscience), and the mixture was incubated at room temperature for 10 min. Then, 10 μL of 2% formic acid (Wako Pure Chemical Industries, Ltd.) was added to stop the reaction. Furthermore, acetonitrile (50 μL) containing 3 μM arachidonic acid-d8 (Cayman Chemical Company) was added and the mixture was stirred.
The amount of arachidonic acid in the obtained enzyme reaction mixture was calculated by measuring by RapidFire-mass spectrometry and correcting by the amount of arachidonic acid-d8. High Throughput online solid phase extraction was performed using RapidFire 300™ system (Agilent Technologies, Inc.). Samples were loaded on SPE C4 cartridge (Agilent Technologies, Inc.) and desalted with 0.2 (v/v) % acetic acid (Wako Pure Chemical Industries, Ltd.) in ultrapure water/acetonitrile (70/30, v/v) at a flow rate of 1.5 mL/min, eluted at a flow rate of 0.5 mL/min with 0.2 (v/v) % acetic acid dissolved in acetonitrile/ultrapure water (90/10, v/v), and injected into the mass spectrometry part. The injection needle was washed with ultrapure water (500 millisecond) and acetonitrile (500 millisecond) to minimize carry-over. The suction time (injection loop 5 μL), load/cleansing time, elution time and re-equilibration time were adjusted to 300, 3000, 4250 and 1000 milliseconds, respectively, and the total cycle time was adjusted to about 10.0 seconds. The RapidFire300 system was controlled by RapidFire UI software version 3.6 (Agilent Technologies, Inc.).
The mass spectrometry of the resultant product was performed using API4000™ triple quadrupole mass spectrometer (AB SCIEX) equipped with an electrospray ion sauce (TurboIon Spray™) in a negative selected reaction monitoring (SRM) mode. The conditions of SRM are shown below. The parameters of the instrument were optimized as follows: capillary temperature 600° C., ion spray voltage −4.5 kV, collision gas 8, curtain gas 15 psi, ion source gas 1 60 psi, ion source gas 2 60 psi. The mass spectrometer was controlled by Analyst™ software version 1.5.1 (AB SCIEX). The peak area integration was analyzed using RapidFire integrator software version 3.6 (Agilent Technologies, Inc.).
MAGL inhibitory rate (%) was calculated according to the following calculation formula. (1-(arachidonic acid production amount of test compound addition group−arachidonic acid production amount of enzyme-free group)+(arachidonic acid production amount of test compound-free group−arachidonic acid production amount of enzyme-free group))×100
By inhibition is commonly meant the drop in the measured response relative to a control, in per cent. Regarding `Cc1cc(O[C@H]2C[C@@H](OC(=O)N3CC4(COC(=O)N4)C3)C2)ccc1F` [Example 50, cis-3-(4-fluoro-3-methylphenoxy)cyclobutyl 6-oxo-7-oxa-2,5-diazaspiro[3.4]octane-2-carboxylate], the inhibition at 10 µM amounted to 99%.

On to `C[C@]1(OC(=O)N2CC3(COC(=O)N3)C2)C[C@H](OCc2ccccc2)C1` [Example 59, trans-3-(benzyloxy)-1-methylcyclobutyl 6-oxo-7-oxa-2,5-diazaspiro[3.4]octane-2-carboxylate], for which the inhibition at 10 µM is 99%.

As for `O=C1NC2(CO1)CN(C(=O)O[C@H]1C[C@@H](Oc3cc(F)c(F)cc3F)C1)C2` [Example 57, cis-3-(2,4,5-trifluorophenoxy)cyclobutyl 6-oxo-7-oxa-2,5-diazaspiro[3.4]octane-2-carboxylate], the inhibition at 10 µM was 100%.

As to `O=C1NC2(CO1)CN(C(=O)O[C@H]1C[C@@H](OCc3ccc(F)c(F)c3F)C1)C2` [Example 6, cis-3-((2,3,4-trifluorobenzyl)oxy)cyclobutyl 6-oxo-7-oxa-2,5-diazaspiro[3.4]octane-2-carboxylate], the inhibition at 10 µM amounted to 101%.

In the case of `Cc1ccc(COC[C@H]2C[C@@H](OC(=O)N3CC4(COC(=O)N4)C3)C2)cc1Cl` [Example 28, cis-3-(((3-chloro-4-methylbenzyl)oxy)methyl)cyclobutyl 6-oxo-7-oxa-2,5-diazaspiro[3.4]octane-2-carboxylate], the inhibition at 10 µM turned out to be 100%.

For the compound `Cc1cc(COC[C@H]2C[C@@H](OC(=O)N3CC4(COC(=O)N4)C3)C2)ccc1Cl` [Example 29, cis-3-(((4-chloro-3-methylbenzyl)oxy)methyl)cyclobutyl 6-oxo-7-oxa-2,5-diazaspiro [3.4]octane-2-carboxylate], the inhibition at 10 µM was found to be 100%.

Take `O=C1NC2(CO1)CN(C(=O)O[C@H]1C[C@@H](COCc3ccc(F)c(F)c3F)C1)C2` [Example 31, cis-3-(((2,3,4-trifluorobenzyl)oxy)methyl)cyclobutyl 6-oxo-7-oxa-2,5-diazaspiro[3.4]octane-2-carboxylate]: the inhibition at 10 µM was determined as 100%.

As for `O=C1NC2(CO1)CN(C(=O)O[C@H]1C[C@@H](Oc3ccc(C(F)(F)F)cc3F)C1)C2` [Example 1, cis-3-(2-fluoro-4-(trifluoromethyl)phenoxy)cyclobutyl 6-oxo-7-oxa-2,5-diazaspiro[3.4]octane-2-carboxylate], the inhibition at 10 µM was 100%.

As to `C[C@]1(OC(=O)N2CC3(COC(=O)N3)C2)C[C@H](Oc2c(F)cc(F)cc2F)C1` [Example 61, trans-1-methyl-3-(2,4,6-trifluorophenoxy)cyclobutyl 6-oxo-7-oxa-2,5-diazaspiro[3.4]octane-2-carboxylate], the inhibition at 10 µM turned out to be 100%.

For the compound `O=C1NC2(CO1)CN(C(=O)O[C@H]1C[C@@H](OCc3ccccc3)C1)C2` [Example 2, cis-3-(benzyloxy)cyclobutyl 6-oxo-7-oxa-2,5-diazaspiro[3.4]octane-2-carboxylate], the inhibition at 10 µM came to 101%.

Turning to `Cc1cc(CO[C@H]2C[C@@H](OC(=O)N3CC4(COC(=O)N4)C3)C2)ccc1Cl` [Example 4, cis-3-((4-chloro-3-methylbenzyl)oxy)cyclobutyl 6-oxo-7-oxa-2,5-diazaspiro[3.4]octane-2-carboxylate], the inhibition at 10 µM was determined as 100%.

Take `O=C1NC2(CO1)CN(C(=O)OC[C@H]1C[C@H](Oc3c(F)cc(F)cc3F)C1)C2` [Example 25, (trans-3-(2,4,6-trifluorophenoxy)cyclobutyl)methyl 6-oxo-7-oxa-2,5-diazaspiro[3.4]octane-2-carboxylate]: the inhibition at 10 µM is 100%.

As to `O=C1NC2(CO1)CN(C(=O)O[C@H]1C[C@@H](Oc3ccccc3Cl)C1)C2` [Example 52, cis-3-(2-chlorophenoxy)cyclobutyl 6-oxo-7-oxa-2,5-diazaspiro[3.4]octane-2-carboxylate], the inhibition at 10 µM amounted to 100%.

Take `O=C1NC2(CO1)CN(C(=O)O[C@H]1C[C@@H](OCc3ccc(F)cc3F)C1)C2` [Example 40, cis-3-((2,4-difluorobenzyl)oxy)cyclobutyl 6-oxo-7-oxa-2,5-diazaspiro[3.4]octane-2-carboxylate]: the inhibition at 10 µM amounted to 100%.

Consider `C[C@]1(OC(=O)N2CC3(COC(=O)N3)C2)C[C@@H](Oc2c(F)cc(F)cc2F)C1` [Example 60, cis-1-methyl-3-(2,4,6-trifluorophenoxy)cyclobutyl 6-oxo-7-oxa-2,5-diazaspiro[3.4]octane-2-carboxylate], for which the inhibition at 10 µM was determined as 98%.

For `O=C1NC2(CO1)CN(C(=O)O[C@H]1C[C@@H](COc3cc(F)c(F)cc3F)C1)C2` [Example 17, cis-3-((2,4,5-trifluorophenoxy)methyl)cyclobutyl 6-oxo-7-oxa-2,5-diazaspiro[3.4]octane-2-carboxylate], the inhibition at 10 µM turned out to be 101%.

Take `Cc1cc(F)ccc1OC[C@H]1C[C@@H](OC(=O)N2CC3(COC(=O)N3)C2)C1` [Example 13, cis-3-((4-fluoro-2-methylphenoxy)methyl)cyclobutyl 6-oxo-7-oxa-2,5-diazaspiro[3.4]octane-2-carboxylate]: the inhibition at 10 µM came to 102%.

For `O=C1NC2(CO1)CN(C(=O)O[C@H]1C[C@H](Oc3ccc(C(F)(F)F)cc3F)C1)C2` [Example 34, trans-3-(2-fluoro-4-(trifluoromethyl)phenoxy)cyclobutyl 6-oxo-7-oxa-2,5-diazaspiro[3.4]octane-2-carboxylate], the inhibition at 10 µM worked out at 99%.

Regarding `O=C1NC2(CO1)CN(C(=O)O[C@H]1C[C@@H](Oc3ccc(C(F)(F)F)cc3)C1)C2` [Example 48, cis-3-(4-(trifluoromethyl)phenoxy)cyclobutyl 6-oxo-7-oxa-2,5-diazaspiro[3.4]octane-2-carboxylate], the inhibition at 10 µM is 100%.

As for `O=C1NC2(CO1)CN(C(=O)O[C@H]1C[C@@H](OCc3c(F)cc(F)cc3F)C1)C2` [Example 8, cis-3-((2,4,6-trifluorobenzyl)oxy)cyclobutyl 6-oxo-7-oxa-2,5-diazaspiro[3.4]octane-2-carboxylate], the inhibition at 10 µM was 100%.

Regarding `O=C1NC2(CO1)CN(C(=O)O[C@H]1C[C@H](OCc3ccc(C(F)(F)F)cc3F)C1)C2` [Example 62, trans-3-((2-fluoro-4-(trifluoromethyl)benzyl)oxy)cyclobutyl 6-oxo-7-oxa-2,5-diazaspiro[3.4]octane-2-carboxylate], the inhibition at 10 µM is 99%.

Turning to `O=C1NC2(CO1)CN(C(=O)O[C@H]1C[C@@H](COc3ccc(Cl)cc3F)C1)C2` [Example 15, cis-3-((4-chloro-2-fluorophenoxy)methyl)cyclobutyl 6-oxo-7-oxa-2,5-diazaspiro[3.4]octane-2-carboxylate], the inhibition at 10 µM worked out at 103%.

For `O=C1NC2(CO1)CN(C(=O)O[C@H]1C[C@@H](OCc3ccc(Cl)c(Cl)c3)C1)C2` [Example 9, cis-3-((3,4-dichlorobenzyl)oxy)cyclobutyl 6-oxo-7-oxa-2,5-diazaspiro[3.4]octane-2-carboxylate], the inhibition at 10 µM worked out at 99%.

As to `Cc1ccc(OC[C@H]2C[C@@H](OC(=O)N3CC4(COC(=O)N4)C3)C2)c(F)c1` [Example 12, cis-3-((2-fluoro-4-methylphenoxy)methyl)cyclobutyl 6-oxo-7-oxa-2,5-diazaspiro[3.4]octane-2-carboxylate], the inhibition at 10 µM is 101%.

Turning to `Cc1ccc(CO[C@H]2C[C@@H](OC(=O)N3CC4(COC(=O)N4)C3)C2)cc1Cl` [Example 3, cis-3-((3-chloro-4-methylbenzyl)oxy)cyclobutyl 6-oxo-7-oxa-2,5-diazaspiro[3.4]octane-2-carboxylate], the inhibition at 10 µM is 101%.
